Results from patent US20180312473A1, “PHENAZINE DERIVATIVES AS ANTIMICROBIAL AGENTS” (priority 2015, published 2018).
Values after ≈ are worked out from the molar mass of the structure shown. Values joined by “and” are separate entries in the source; they are usually repeats but may differ in a detail not shown here. Identical values can stand only once. Like-named read-outs stand apart in the source and are kept apart here.

Key:
[1] = system: MRSE (S. epidermidis ATCC 35984) planktonic cells and biofilms; assay: Calgary Biofilm Device (CBD) assay, MBC/MBEC; assay type: cell-based, Staphylococcus epidermidis; conditions: for MBC: Staphylococcus epidermidis
E. coli UAEC-1 = assay: MIC assay (broth microdilution, CLSI); assay type: cell-based; conditions: Escherichia coli, UAEC1; read-out: E. coli UAEC-1 MIC
[2] = system: VRE (E. faecium ATCC 700221) planktonic cells and biofilms; assay: Calgary Biofilm Device (CBD) assay, MBC/MBEC; assay type: cell-based, Enterococcus faecium; conditions: for MBC: Enterococcus
HeLa cells = assay: in vitro; assay type: cell-based
in vitro = assay type: cell-based; conditions: human
[3] = system: Staphylococcus epidermidis (ATCC 35984), MRSE; assay: MIC assay (broth microdilution, CLSI); assay type: cell-based; conditions: Staphylococcus epidermidis
P. aeruginosa (PAO1) = assay: MIC assay (broth microdilution, CLSI); assay type: cell-based; conditions: Pseudomonas aeruginosa, PAO1; read-out: PAO1 MIC
E. faecium 700221 (VRE) = assay: MIC assay with Tiron or metal(II) cation co-treatment; assay type: cell-based, Enterococcus faecium
K. pneumoniae 13883 = assay: MIC assay (broth microdilution, CLSI); assay type: cell-based, Klebsiella pneumoniae; conditions: Klebsiella pneumoniae, 13883; read-out: K. pneumoniae 13883 MIC
MRSA BAA-1707 = assay: MIC assay (broth microdilution, CLSI); conditions: Staphylococcus aureus, read-out: MIC, MRSA BAA-1707
[4] = system: S. aureus clinical isolate SA 156; assay: MIC assay (broth microdilution, CLSI); conditions: Staphylococcus aureus, read-out: MIC, SA 156
[5] = system: S. aureus clinical isolate SA 129; assay: MIC assay (broth microdilution, CLSI); conditions: Staphylococcus aureus, read-out: MIC, SA 129
[6] = system: MRSA-2 persister cells (stationary cultures); conditions: 12.5 μM; reduction of viable cells over 24 h; listed as 214
[7] = system: S. aureus clinical isolate SA 147; assay: MIC assay (broth microdilution, CLSI); conditions: Staphylococcus aureus, read-out: MIC, SA 147
[8] = system: MRSA-2 persister cells (stationary cultures); assay: microbe, parasite or virus in culture; conditions: Staphylococcus aureus, 24 h, read-out: reduction of viable stationary MRSA-2 cells
[9] = system: MRSA biofilms (MRSA-2, BAA-1707, BAA-44); assay: Calgary Biofilm Device assay, values summarised over MRSA strains
MRSE 35984 biofilms = assay: Live/Dead staining (fluorescence microscopy) of MRSE 35984 biofilms; assay type: cell-based, Staphylococcus epidermidis; conditions: 24 h
Experimental: In addition to Calgary Biofilm Device experiments, we evaluated select HPs against staphylococcal biofilms in live/dead staining experiments. HP 14 was added to 24 hour old MRSE biofilms at 0.1, 1, and 10 μM and allowed to incubate at 37° C. for an additional 24 hours. Following this, images of the treated and untreated S. epidermidis biofilm were taken using fluorescence microscopy (FIG. 11).
A mid-log culture of MRSE […] was diluted 1:1,000-fold and 500 μL was transferred to each compartment of a 4 compartment CELLview dish (Greiner Bio-One 627871). The dish was then incubated for 24 hours at 37° C. After this time, the cultures were removed and the plate was washed with 0.9% saline. The dish was then treated with the compounds in fresh media at various concentrations. DMSO was used as our negative control in this assay. The dish was incubated with the compound for 24 hours at 37° C. After this time, the cultures were removed and the dish was washed with 0.9% saline for 2 minutes. Saline was then removed and 500 μL of the stain (Live/Dead BacLight Viability Kit, Invitrogen) were added for 15 minutes and left in the dark. After this time, the stain was removed and the dish was washed twice with 0.9% saline. Then the dish was fixed with 500 μL 4% paraformaldehyde in PBS for 30 minutes. Images of remaining MRSE biofilms were then taken with a fluorescence microscope. All data were analyzed using IMAGE J software.

[10] = system: Staphylococcus epidermidis (ATCC 12228); assay: MIC assay (broth microdilution, CLSI); assay type: cell-based; conditions: Staphylococcus epidermidis, ATCC12228; Table 7; b lowest concentration tested; read-out: MIC, S. epidermidis 12228
[11] = Table 8, read-out: MRSE 35984 MBC
[12] = Table 2B, read-out: MIC, Staphylococcus epidermidis (ATCC 35984)
[13] = Table 7, read-out: MIC, MRSE 35984

Question: For Oc1ccc(I)c2nc3cc(Cl)c(Cl)cc3nc12 [Compound 12, 7,8-Dichloro-4-iodo-1-hydroxyphenazine], which MBC ([1]; Table 5, read-out: MRSE MBC) is on record?
Answer: 9.38 µM (≈ 3.67 µg/mL)

Question: And the MBC [1, 11]?
Answer: 9.38 µM (≈ 3.67 µg/mL)

Question: And the “MRSE MBEC” value ([1]; Table 5)?
Answer: 75 µM

Question: And the MIC (E. coli UAEC-1)?
Answer: > 100 µM

Question: And the MBC ([2]; read-out: VRE 700221 MBC)?
Answer: 3.13 µM (≈ 1.22 µg/mL)

Question: And the IC50 (HeLa cells; human, 24 h)?
Answer: > 100 µM

Question: What about the IC50 at 24 h (in vitro) of the same compound?
Answer: > 100 µM

Question: What about the MIC ([3]; Table 2A, read-out: MIC, Staphylococcus epidermidis (ATCC 35984)) of the same compound?
Answer: 0.78 µM (≈ 0.305 µg/mL)

Question: And the MIC [3, 12]?
Answer: 0.78 µM (≈ 0.305 µg/mL)

Question: And the MIC [3, 13]?
Answer: 0.78 µM (≈ 0.305 µg/mL)

Question: What about the MIC (P. aeruginosa (PAO1)) of the same compound?
Answer: > 100 µM

Question: And the MIC (E. faecium 700221 (VRE))?
Answer: 3.13 µM

Question: What about the MIC (E. faecium 700221 (VRE); Enterococcus faecium, VRE) of the same compound?
Answer: 3.13 µM

Question: What about the MIC (E. faecium 700221 (VRE); Enterococcus faecium, VRE, read-out: MIC with Tiron) of the same compound?
Answer: 3.13 µM

Question: What about the MIC (E. faecium 700221 (VRE); Enterococcus faecium, VRE, E. faecium 700221, 200 μM CuSO4, read-out: MIC with Cu^2+) of the same compound?
Answer: 1.56 µM

Question: And the MIC (E. faecium 700221 (VRE); read-out: MIC with Tiron)?
Answer: 3.13 µM

Question: And the MIC (K. pneumoniae 13883)?
Answer: > 100 µM

Question: What about the MIC (MRSA BAA-1707) of the same compound?
Answer: 0.15 µM (≈ 0.0586 µg/mL)

Question: With Oc1c(Br)cc(I)c2nc3cc(Cl)c(Cl)cc3nc12 [Compound 14, 2-bromo-7,8-dichloro-4-iodo-1-hydroxyphenazine] as the compound, how does the MBC ([1]; Table 5, read-out: MRSE MBC) read?
Answer: 1.56 µM (≈ 0.733 µg/mL)

Question: And the MBC [1, 11]?
Answer: 1.56 µM (≈ 0.733 µg/mL)

Question: And the “MRSE MBEC” value ([1]; Table 5, listed as 214)?
Answer: 1.56 μM and 1.56/1.56 μM

Question: What about the MBC ([2]; Table 5, c lowest concentration tested, read-out: VRE MBC) of the same compound?
Answer: 0.2 µM (≈ 0.094 µg/mL)

Question: What about the MBC ([2]; Table 8, c lowest concentration tested, read-out: VRE 700221 MBC) of the same compound?
Answer: 0.2 µM (≈ 0.094 µg/mL)

Question: What about the “VRE MBEC” value ([2]; Table 5, c lowest concentration tested, listed as 214) of the same compound?
Answer: 0.20 μM and 0.20^c/0.20^c μM

Question: And the MIC [4]?
Answer: 0.3 µM (≈ 0.141 µg/mL)

Question: What about the “HeLa cytotoxicity at 50 μM” value (HeLa cells) of the same compound?
Answer: no cytotoxicity was observed

Question: And the IC50 (HeLa cells; human, 24 h)?
Answer: > 50 µM

Question: What about the “HeLa cytotoxicity at 50 μM” value (HeLa cells; human, 24 h, 50 μM) of the same compound?
Answer: No HeLa cell death

Question: What about the “HeLa cell death at 100 μM” value (HeLa cells; human, 24 h, 100 μM) of the same compound?
Answer: ~70%

Question: And the IC50 at 24 h (in vitro)?
Answer: > 50 µM

Question: What about the MIC [3, 12] of the same compound?
Answer: 3.13 µM (≈ 1.47 µg/mL)

Question: What about the MIC [3, 13] of the same compound?
Answer: 3.13 µM (≈ 1.47 µg/mL)

Question: What about the MIC [5] of the same compound?
Answer: 1.56 µM (≈ 0.733 µg/mL)

Question: What about the MRSA-2 stationary killing [6] of the same compound?
Answer: >3 log

Question: What about the MIC [7] of the same compound?
Answer: 0.3 µM (≈ 0.141 µg/mL)

Question: And the inhibition at 12.5 µM [8]?
Answer: > 99.9%

Question: And the “MBEC against MRSA biofilms” value [9]?
Answer: < 10 µM and 6.25 to 9.38 µM

Question: What about the MIC (MRSA BAA-1707) of the same compound?
Answer: 0.3 µM (≈ 0.141 µg/mL)

Question: And the “effect on established MRSE biofilm (Live/Dead staining)” value (“effect … (Live/Dead staining)” for short) (MRSE 35984 biofilms; 0.1 μM)?
Answer: a significant amount of MRSE biofilm cells were eradicated, however, not cleared from within the biofilm

Question: And the “effect … (Live/Dead staining)” value (MRSE 35984 biofilms; 1 μM)?
Answer: a significant amount of the biofilm cells

Question: And the “effect … (Live/Dead staining)” value (MRSE 35984 biofilms; 10 μM)?
Answer: removed all detectable MRSE biofilm cells from the glass surface

Question: What about the MIC [10] of the same compound?
Answer: 0.1 µM (≈ 0.047 µg/mL)
